Patent publication US6596692B1, “Substance P analogs for the treatment of cancer” (Dabur Research Foundation, priority 2000, dated 2003)
Non-standard residues stand in square brackets, D forms with d. Residues, ends and D or L forms follow the SMILES beside them. Ac5c = NC1(C(=O)O)CCCC1

Key:
[1] = system: MCF7 (breast); assay: In vitro cytotoxic activity, MTT assay, 72 hours; assay type: cell-based, human; conditions: MCF-7, 100 pM
Procedure: (§1) In vitro Cytotoxic Activity of the Novel Synthesized Peptide Analogs
(§2) The cytotoxic activity of synthesized peptides was tested on six human tumor cell lines namely MCF7 (breast), U373 (glioblastoma), PTC, (colon), L132 (lung), Su.86.86 (pancreas), and KB (oral). The tumor cells were collected at exponential growth phase and resuspended in medium (1.5×10^6 cells/ml in RPMI 1640 containing 10% FBS). 150 μL of medium was added to the wells of a 96-well tissue culture plate (Nunc, Denmark) followed by 30 μl of cell suspension. The plate was left in an incubator (37° C., 5% CO2) overnight. 20 μl of the peptide (100 pM to 10 μM concentration) was added to marked wells of the 96-well plate. Each concentration was plated in triplicate. 20 μl of medium alone was added to control wells while wells without cells served as blanks. A total volume of 200 μL was ensured in each well and plate was left in incubator (37° C., 5% CO2). After 72 hours of incubation an MTT assay was performed and percentage cytotoxicity was calculated with respect to control cells.

[2] = system: PTC (colon); assay: In vitro cytotoxic activity, MTT assay, 72 hours; assay type: cell-based, human
Procedure: as §1, §2

[3] = system: Su.86.86 (pancreas); assay: In vitro cytotoxic activity, MTT assay, 72 hours; assay type: cell-based, human; conditions: Su8686, 100 pM
Procedure: as §1, §2

[4] = system: human colon adenocarcinoma (PTC) xenografts; assay: In vivo anti tumor activity on PTC tumor xenografts; design: species or system Balb/c athymic nude mice; conditions: 4.25 μg intravenously twice a day; for Tumor volumes, Average: group average
Procedure: In vivo Anti Tumor Activity of Substance P Analogs on PCT Tumor Xenografts Protocol The anti tumor activity of substance P analogs was studied in human colon adenocarcinoma (PTC) xenografts in nude mice. PTC tumor xenografts were grown in Balb/c athymic nude mice by subcutaneous inoculation of a single cell suspension of PTC cells (15×10^6 cells/100 μL). The tumor bearing animals were divided into 4 groups of three animals each including one group comprising untreated control animals. Treatment with Substance P Receptor Antagonists was initiated when the average tumor volumes, as measured using a vernier caliper, were between 400-800 mm^3. SEQ ID NO:5, SEQ ID NO:7 and SEQ ID NO:8 peptides were prepared at a concentration of 42.5 μg/ml and intravenously administered to the assigned group of tumor bearing animals at a dose of 4.25 μg/100 μL twice a day so that the total dose of 8.5 μg was administered to each animal. The treatment was continued for a period of 10 days. The antitumor activity of the compounds was monitored by measuring 15 tumor volumes every fourth day using the formula W*W*L*0.4 (W=smaller diameter, L=larger diameter). The percentage inhibition of tumor growth was calculated using. the formula (1−tumor volume-treated/ tumor volume-control)×100.

CC(C)C[C@H](NC(=O)[C@@H](Cc1c[nH]c2ccccc12)NC(=O)[C@H](Cc1ccccc1)NC(=O)[C@@H](Cc1c[nH]c2ccccc12)NC(=O)[C@H](CCC(N)=O)NC(=O)[C@@H](Cc1ccccc1)NC(=O)[C@@H]1CCCN1C(=O)[C@H](CCCCN)NC(=O)[C@@H]1CCCN1C(=O)[C@H](N)CCCNC(=N)N)C(=O)NC1(C(N)=O)CCCC1 [SEQ ID NO: 5, D-Arg-Pro-Lys-Pro-D-Phe-Gln-D-Trp-Phe-D-Trp-Leu-Ac5c-NH2] (H-[dR]PKP[dF]Q[dW]F[dW]L[Ac5c]-NH2; N-terminus assumed)
Percentage cytotoxicity [1]: Nil
Percentage cytotoxicity ([2]; 100 pM): Nil
Percentage cytotoxicity ([2]; 1 nM): 3.1 ± 0.5%
Percentage cytotoxicity [3]: Nil
Tumor volumes, animal I ([4]; Day 6): 307.8 mm^3
Tumor volumes, animal II ([4]; Day 6): 520 mm^3
Tumor volumes, animal III ([4]; Day 6): 687.7 mm^3
Tumor volumes, Average ([4]; Day 6): 505.1 mm^3
Tumor volumes, animal I ([4]; Day 8): 748.8 mm^3
Tumor volumes, animal II ([4]; Day 8): 1149.2 mm^3
Tumor volumes, animal III ([4]; Day 8): 1411.2 mm^3
Tumor volumes, Average ([4]; Day 8): 1103.0 mm^3
Tumor volumes, animal I ([4]; Day 12): 2049 mm^3
Tumor volumes, animal II ([4]; Day 12): 3080.3 mm^3
Tumor volumes, animal III ([4]; Day 12): 3840.0 mm^3
Tumor volumes, Average ([4]; Day 12): 2989.7 mm^3
Tumor volumes, animal I ([4]; Day 15): 3310 mm^3
Tumor volumes, animal II ([4]; Day 15): 3360 mm^3
Tumor volumes, animal III ([4]; Day 15): 4480.0 mm^3
Tumor volumes, Average ([4]; Day 15): 3716.6 mm^3
Tumor volumes, animal I ([4]; Day 19): 3582 mm^3
Tumor volumes, animal II ([4]; Day 19): 1465.6 mm^3
Tumor volumes, animal III ([4]; Day 19): 3499.2 mm^3
Tumor volumes, Average ([4]; Day 19): 2848.9 mm^3
Tumor volumes, animal II ([4]; Day 22): 100 mm^3
Tumor volumes, animal III ([4]; Day 22): 2560.0 mm^3
Tumor volumes, Average ([4]; Day 22): 1330.0 mm^3
